According to PubChem BioAssay AID330 (DTP/NCI, 2004):
Several values for one entry are separate records, joined by “and”; a condition that tells them apart may be missing. Equal values may be shown once. Toxic doses and inconclusive results are not listed. How the source made its calls: active means survival T/C of 150% or more; inactive means T/C below 125% in these data.

Test system: P388 leukemia ip, CD2F1 mice, survival T/C
Assay: NCI In Vivo Anticancer Drug Screen. Data for tumor model P388 Leukemia (intraperitoneal) in CD2F1 (CDF1) mice
Conditions: endpoint: median survival time, higher = longer survival
Method in brief: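 Mice carrying the transplanted tumor received test compound or vehicle. Survival was recorded in each group, and the value is the treated-group measurement divided by that of the vehicle-treated control group.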

[1] = dose: 50.0 mg/kg/injection, schedule: Q01DX009 (ip), vehicle: saline
[2] = dose: 100.0 mg/kg/injection, schedule: Q01DX009 (ip), vehicle: saline
[3] = dose: 100.0 mg/kg/injection, schedule: Q04DX003 (ip), vehicle: saline with Tween-80
[4] = dose: 200.0 mg/kg/injection, schedule: Q01DX009 (ip), vehicle: saline
[5] = dose: 200.0 mg/kg/injection, schedule: Q04DX003 (ip), vehicle: saline with Tween-80
[6] = dose: 50.0 mg/kg/injection, schedule: Q01DX005 (ip), vehicle: Klucel (hydroxypropylcellulose) (HPC)
[7] = dose: 50.0 mg/kg/injection, schedule: Q01DX005 (ip), vehicle: saline with Tween-80
[8] = dose: 100.0 mg/kg/injection, schedule: Q01DX005 (ip), vehicle: saline with Tween-80
[9] = dose: 200.0 mg/kg/injection, schedule: Q01DX005 (ip), vehicle: saline with Tween-80

Measured: T/C

C=CCOCC1CO1 (stereo unspecified)
inactive: dose: 12.5 mg/kg/injection, schedule: Q01DX009 (ip), vehicle: saline 106 % of control | dose: 25.0 mg/kg/injection, schedule: Q01DX009 (ip), vehicle: saline 97 % of control | [1] 103 % of control | dose: 50.0 mg/kg/injection, schedule: Q04DX003 (ip), vehicle: saline with Tween-80 100 % of control | [2] 100 % of control | [3] 90 % of control | dose: 132.0 mg/kg/injection, schedule: Q04DX003 (ip), vehicle: saline with Tween-80 109 % of control | [4] 100 % of control | [5] 109 % of control | dose: 300.0 mg/kg/injection, schedule: Q04DX003 (ip), vehicle: saline with Tween-80 122 % of control

COC(=O)/C=N/NS(=O)(=O)c1ccc(C)cc1
inactive: dose: 12.5 mg/kg/injection, schedule: Q01DX009 (ip), vehicle: other 102 % of control | dose: 25.0 mg/kg/injection, schedule: Q01DX009 (ip), vehicle: other 102 % of control | dose: 50.0 mg/kg/injection, schedule: Q01DX009 (ip), vehicle: other 100 % of control | dose: 100.0 mg/kg/injection, schedule: Q01DX009 (ip), vehicle: other 100 % of control

CN1C2CCC1C(Br)C(=O)C2 (stereo unspecified)
inactive: dose: 50.0 mg/kg/injection, schedule: Q01DX005 (ip), vehicle: saline 100 % of control | dose: 100.0 mg/kg/injection, schedule: Q01DX005 (ip), vehicle: saline 108 % of control (2×) and 109 % of control | dose: 200.0 mg/kg/injection, schedule: Q01DX005 (ip), vehicle: saline 118 % of control

Cc1ccc2c(c1)nc(Cl)n2Cc1ccccc1
inactive: [6] 100 % of control | dose: 100.0 mg/kg/injection, schedule: Q01DX005 (ip), vehicle: Klucel (hydroxypropylcellulose) (HPC) 102 % of control | dose: 200.0 mg/kg/injection, schedule: Q01DX005 (ip), vehicle: Klucel (hydroxypropylcellulose) (HPC) 102 % of control

CC(C)(C)OC(=O)N1CCCC1C1=N/C(=C\c2ccccc2)C(=O)O1 (stereo unspecified)
inactive: [7] 102 % of control | [8] 111 % of control | [9] 105 % of control

CC1(C)CC(OP(=[Se])(OC2CC(C)(C)N(O)C(C)(C)C2)c2ccccc2)CC(C)(C)N1O
inactive: dose: 12.5 mg/kg/injection, schedule: Q01DX001 (ip), vehicle: Klucel (hydroxypropylcellulose) (HPC) 102 % of control | dose: 25.0 mg/kg/injection, schedule: Q01DX001 (ip), vehicle: Klucel (hydroxypropylcellulose) (HPC) 102 % of control | dose: 50.0 mg/kg/injection, schedule: Q01DX001 (ip), vehicle: Klucel (hydroxypropylcellulose) (HPC) 105 % of control

COc1ccc2c(c1)CCC(c1nc3ccc(Cl)cc3[nH]c1=O)=C2O
inactive: dose: 60.0 mg/kg/injection, schedule: Q01DX005 (ip), vehicle: Klucel (hydroxypropylcellulose) (HPC) 101 % of control | dose: 120.0 mg/kg/injection, schedule: Q01DX005 (ip), vehicle: Klucel (hydroxypropylcellulose) (HPC) 92 % of control | dose: 240.0 mg/kg/injection, schedule: Q01DX005 (ip), vehicle: Klucel (hydroxypropylcellulose) (HPC) 91 % of control

CCC[CH2][Sn](=[S])[CH2]CCC
inactive: dose: 1.56 mg/kg/injection, schedule: Q01DX009 (ip), vehicle: other 116 % of control

CCC(c1ccc(O)cc1)C(CC)c1ccc(OC)cc1 (stereo unspecified)
inactive: [3] 104 % of control | [5] 86 % of control

O=[N+]([O-])C(Br)(Br)S(=O)(=O)c1ccccc1
inactive: [7] 97 % of control | [8] 106 % of control

COc1ccc(C(=O)O[C@@H]2CCN3CC[C@H](C)[C@H]23)cc1
inactive: dose: 12.5 mg/kg/injection, schedule: Q01DX005 (ip), vehicle: Klucel (hydroxypropylcellulose) (HPC) 102 % of control | dose: 25.0 mg/kg/injection, schedule: Q01DX005 (ip), vehicle: Klucel (hydroxypropylcellulose) (HPC) 102 % of control | [6] 104 % of control

Nc1nnc2nc(C(C(=O)c3cccc(O)c3)c3nc4nnc(N)n4[nH]c3=O)c(=O)[nH]n12
inactive: dose: 60.0 mg/kg/injection, schedule: Q01DX005 (ip), vehicle: saline 97 % of control | dose: 120.0 mg/kg/injection, schedule: Q01DX005 (ip), vehicle: saline 106 % of control | dose: 240.0 mg/kg/injection, schedule: Q01DX005 (ip), vehicle: saline 97 % of control

CCCCCCSCN(CC)CC
inactive: [1] 103 % of control | [2] 107 % of control | [4] 112 % of control

N#Cc1c(O)c2c(c(O)c1C#N)C(=O)c1ccccc1C2=O
inactive: [7] 97 % of control | [8] 95 % of control | [9] 92 % of control
